The values that follow come from ChEMBL document CHEMBL1145730, “Nodulisporic acid side-chain modifications: access to the 2", 3", 4", and 6" registers” (Bioorg Med Chem Lett, 2003).

Each structure is given as a SMILES string.

The test system of the test is Pulicinae. As to the kind of experiment: In vitro flea activity using a membrane feeding assay wherein adult fleas ingest drug-treated bovine blood. It counts as functional.
`C=C(C)[C@H]1C(=O)c2c3c(cc4c5c(n1c24)[C@@]1(C)C(CC[C@H]2[C@](C)(/C=C/CC(=O)NC(C)(C)C)[C@@H](O)CC[C@@]21C)C5)C1=CC(C)(C)OC(C)(C)C1[C@@H]3O` (stereo not given in full) came in with an Activity of 1 p.p.m.

`C=C(C)[C@H]1C(=O)c2c3c(cc4c5c(n1c24)[C@@]1(C)C(CC[C@H]2[C@](C)(/C=C/C=C(\C)C(=O)O)[C@@H](O)CC[C@@]21C)C5)C1=CC(C)(C)OC(C)(C)C1[C@@H]3O` (stereo not given in full) returned an Activity of 1 p.p.m.

`C=C(C)[C@H]1C(=O)c2c3c(cc4c5c(n1c24)[C@@]1(C)C(CC[C@H]2[C@](C)(/C=C/CC(C)=O)[C@@H](O)CC[C@@]21C)C5)C1=CC(C)(C)OC(C)(C)C1[C@@H]3O` (stereo not given in full) had an Activity of 1 p.p.m.

With `C=C(C)[C@H]1C(=O)c2c3c(cc4c5c(n1c24)[C@@]1(C)C(CC[C@H]2[C@](C)(C/C=C/C(=O)NCC)[C@@H](O)CC[C@@]21C)C5)C1=CC(C)(C)OC(C)(C)C1[C@@H]3O` (stereo not given in full), the Activity amounted to 10 p.p.m.

Molecule `C=C(C)[C@H]1C(=O)c2c3c(cc4c5c(n1c24)[C@@]1(C)C(CC[C@H]2[C@](C)(/C=C/C(=O)NCCC)[C@@H](O)CC[C@@]21C)C5)C1=CC(C)(C)OC(C)(C)C1[C@@H]3O` (stereo not given in full) displayed an Activity greater than 10 p.p.m.

`C=C(C)[C@H]1C(=O)c2c3c(cc4c5c(n1c24)[C@@]1(C)C(CC[C@H]2[C@](C)(/C=C/CC=O)[C@@H](O)CC[C@@]21C)C5)C1=CC(C)(C)OC(C)(C)C1[C@@H]3O` (stereo not given in full) gave an Activity of 10 p.p.m.

In turn, `C=C(C)[C@H]1C(=O)c2c3c(cc4c5c(n1c24)[C@@]1(C)C(CC[C@H]2[C@](C)(/C=C/CC(=O)Nc4ccccc4)[C@@H](O)CC[C@@]21C)C5)C1=CC(C)(C)OC(C)(C)C1[C@@H]3O` (stereo not given in full) displayed an Activity of 1 p.p.m.

Molecule `C=C(C)[C@H]1C(=O)c2c3c(cc4c5c(n1c24)[C@@]1(C)C(CC[C@H]2[C@](C)(/C=C/CC(=O)NCC)[C@@H](O)CC[C@@]21C)C5)C1=CC(C)(C)OC(C)(C)C1[C@@H]3O` (stereo not given in full) had an Activity of 10 p.p.m.

In the case of `C=C(C)[C@H]1C(=O)c2c3c(cc4c5c(n1c24)[C@@]1(C)C(CC[C@H]2[C@](C)(C/C=C/C(=O)NC4CC4)[C@@H](O)CC[C@@]21C)C5)C1=CC(C)(C)OC(C)(C)C1[C@@H]3O` (stereo not given in full), the Activity is greater than 10 p.p.m.

Molecule `C=C(C)[C@H]1C(=O)c2c3c(cc4c5c(n1c24)[C@@]1(C)C(CC[C@H]2[C@](C)(/C=C/CC(=O)N4CCOCC4)[C@@H](O)CC[C@@]21C)C5)C1=CC(C)(C)OC(C)(C)C1[C@@H]3O` (stereo not given in full) gave an Activity of 1 p.p.m.

In the case of `C=C(C)[C@H]1C(=O)c2c3c(cc4c5c(n1c24)[C@@]1(C)C(CC[C@H]2[C@](C)(/C=C/CC(=O)NCc4ccco4)[C@@H](O)CC[C@@]21C)C5)C1=CC(C)(C)OC(C)(C)C1[C@@H]3O` (stereo not given in full), the Activity was 10 p.p.m.

`C=C(C)[C@H]1C(=O)c2c3c(cc4c5c(n1c24)[C@@]1(C)C(CC[C@H]2[C@](C)(/C=C/C(=O)NCc4ccccc4)[C@@H](O)CC[C@@]21C)C5)C1=CC(C)(C)OC(C)(C)C1[C@@H]3O` (stereo not given in full) displayed an Activity of 10 p.p.m.

On to `C=C(C)[C@H]1C(=O)c2c3c(cc4c5c(n1c24)[C@@]1(C)C(CC[C@H]2[C@](C)(/C=C/CC(=O)OC)[C@@H](O)CC[C@@]21C)C5)C1=CC(C)(C)OC(C)(C)C1[C@@H]3O` (stereo not given in full), for which the Activity came out at 1 p.p.m.

The molecule `C=C(C)[C@H]1C(=O)c2c3c(cc4c5c(n1c24)[C@@]1(C)C(CC[C@H]2[C@](C)(C/C=C/C(C)=O)[C@@H](O)CC[C@@]21C)C5)C1=CC(C)(C)OC(C)(C)C1[C@@H]3O` (stereo not given in full) gave an Activity of 10 p.p.m.

In turn, `C=C(C)[C@H]1C(=O)c2c3c(cc4c5c(n1c24)[C@@]1(C)C(CC[C@H]2[C@](C)(/C=C/C(=O)NC)[C@@H](O)CC[C@@]21C)C5)C1=CC(C)(C)OC(C)(C)C1[C@@H]3O` (stereo not given in full) gave an Activity of 10 p.p.m.

`C=C(C)[C@H]1C(=O)c2c3c(cc4c5c(n1c24)[C@@]1(C)C(CC[C@H]2[C@](C)(/C=C/CC(=O)NCc4ccccc4)[C@@H](O)CC[C@@]21C)C5)C1=CC(C)(C)OC(C)(C)C1[C@@H]3O` (stereo not given in full) gave an Activity of 10 p.p.m.

On to `C=C(C)[C@H]1C(=O)c2c3c(cc4c5c(n1c24)[C@@]1(C)C(CC[C@H]2[C@](C)(/C=C/CC(=O)N(C)C)[C@@H](O)CC[C@@]21C)C5)C1=CC(C)(C)OC(C)(C)C1[C@@H]3O` (stereo not given in full), for which the Activity amounted to 10 p.p.m.

Molecule `C=C(C)[C@H]1C(=O)c2c3c(cc4c5c(n1c24)[C@@]1(C)C(CC[C@H]2[C@](C)(C/C=C/C(=O)N(C)C)[C@@H](O)CC[C@@]21C)C5)C1=CC(C)(C)OC(C)(C)C1[C@@H]3O` (stereo not given in full) had an Activity of 10 p.p.m.

Consider `C=C(C)[C@H]1C(=O)c2c3c(cc4c5c(n1c24)[C@@]1(C)C(CC[C@H]2[C@](C)(C/C=C/C(=O)OC)[C@@H](O)CC[C@@]21C)C5)C1=CC(C)(C)OC(C)(C)C1[C@@H]3O` (stereo not given in full), for which the Activity is 10 p.p.m.

As for `C=C(C)[C@H]1C(=O)c2c3c(cc4c5c(n1c24)[C@@]1(C)C(CC[C@H]2[C@](C)(/C=C/C(=O)N4CCN(c6ccccn6)CC4)[C@@H](O)CC[C@@]21C)C5)C1=CC(C)(C)OC(C)(C)C1[C@@H]3O` (stereo not given in full), the Activity came to 1 p.p.m.

As to `C=C(C)[C@H]1C(=O)c2c3c(cc4c5c(n1c24)[C@@]1(C)C(CC[C@H]2[C@](C)(/C=C/CC(=O)NC4CC4)[C@@H](O)CC[C@@]21C)C5)C1=CC(C)(C)OC(C)(C)C1[C@@H]3O` (stereo not given in full), the Activity stood at 1 p.p.m.

`C=C(C)[C@H]1C(=O)c2c3c(cc4c5c(n1c24)[C@@]1(C)C(CC[C@H]2[C@](C)(/C=C/C(=O)N(C)C)[C@@H](O)CC[C@@]21C)C5)C1=CC(C)(C)OC(C)(C)C1[C@@H]3O` (stereo not given in full) registered an Activity greater than 10 p.p.m.

`C=C(C)[C@H]1C(=O)c2c3c(cc4c5c(n1c24)[C@@]1(C)C(CC[C@H]2[C@](C)(/C=C/CC(=O)N(C)CCC)[C@@H](O)CC[C@@]21C)C5)C1=CC(C)(C)OC(C)(C)C1[C@@H]3O` (stereo not given in full) had an Activity of 1 p.p.m.

`C=CCN(C)C(=O)/C=C/[C@]1(C)[C@@H](O)CC[C@@]2(C)[C@H]1CCC1Cc3c(n4c5c(c6c(cc35)C3=CC(C)(C)OC(C)(C)C3[C@@H]6O)C(=O)[C@@H]4C(=C)C)[C@@]12C` (stereo not given in full) returned an Activity greater than 10 p.p.m.

As to `C=C(C)[C@H]1C(=O)c2c3c(cc4c5c(n1c24)[C@@]1(C)C(CC[C@H]2[C@](C)(/C=C/C(=O)NC(C)(C)c4ccccn4)[C@@H](O)CC[C@@]21C)C5)C1=CC(C)(C)OC(C)(C)C1[C@@H]3O` (stereo not given in full), the Activity came out at 1 p.p.m.
